# Source: patent US20070122414A1, “Surface marker-directed cancer therapeutics” (Aurelium BioPharma Inc., priority 2005, published 2007)
# System: SKOV3 ovarian tumor cells
# Assay: SKOV3 tumor xenograft in nude mice, relative tumor volume (Example 1)
# Format: in vivo
# Details: SKOV3 tumors in nude mice; intravenous
# Method: Starting on the first day of treatment, tumor growth was measured by […], and the volume of the xenograft was monitored every 4 days. […] Mice were then treated with vimentin-directed therapeutics. […] Taxol was obtained commercially from Sigma Corp. (St. Louis, Mo.).
# All treatments were introduced by intravenous administration. Mice were then sacrificed and tumors excised for relative volume determinations.
structure (smiles),measurement,value
CC(=O)O[C@H]1C(=O)[C@@]2(C)[C@H]([C@H](OC(=O)c3ccccc3)[C@]3(O)C[C@H](OC(=O)[C@H](O)[C@@H](NC(=O)c4ccccc4)c4ccccc4)C(C)=C1C3(C)C)[C@]1(OC(C)=O)CO[C@@H]1C[C@@H]2O [taxol],tumor size/volume relative to other treatment groups,"smaller than tumors in mice treated with vehicle or isotypic control, but not as small as the tumors isolated from mice treated with anti-vimentin antibodies and taxol together"
